The conditions of the data set: 298 K; 101.33 kPa; Crystal; X-ray diffraction.

Mass density data for one compound are collected here from the NIST ThermoML archive (doi:10.1016/j.jct.2013.10.005).

The term mass density denotes mass per unit of volume.

Numbers after ± are expanded uncertainties.

`O.O.O.O.O=C([O-])[C@H](O)[C@@H](O)[C@H](O)[C@H](O)CO.O=C([O-])[C@H](O)[C@@H](O)[C@H](O)[C@H](O)CO.[Ba+2]` [barium D-gluconate tetrahydrate]: the mass density is on record as 1969 ± 10 kg/m3.
